Measured values from patent US20240000872A1, “NOVEL BACTERIOPHAGE THAT LYSES ACINETOBACTER GENUS BACTERIA HAVING RESISTANCE TO ANTIBIOTICS” (priority 2020, published 2024).

Test system: Acinetobacter baumannii strains
Assay: Antibiotic susceptibility test (CLSI disk diffusion test method, read per CLSI 2016); on antibiotic susceptibility S/I/R: key: ‘S’ means susceptible; ‘I’ means intermediate; ‘R’ means resistant; on susceptibility category (S/I/R): key: ‘S’ means susceptible; ‘I’ means intermediate; ‘R’ means resistant
Assay type: cell-based
Design: antibiotic susceptibility test value / susceptibility test value (number given before S/I/R) / antibiotic susceptibility value: unit not given here

## piperacillin-tazobactam
Host strain YMC16/01/R353
  antibiotic susceptibility value: 128
  susceptibility category (S/I/R): R
  susceptibility test value (number given before S/I/R): 128
Host strain YMC16/01/R380
  antibiotic susceptibility S/I/R: R
  antibiotic susceptibility value: 128
  susceptibility category (S/I/R): R
  susceptibility test value (number given before S/I/R): 128
Host strain YMC16/01/R397
  antibiotic susceptibility S/I/R: R
  antibiotic susceptibility value: 128
  susceptibility category (S/I/R): R
  susceptibility test value (number given before S/I/R): 128
Host strain YMC16/01/R405
  antibiotic susceptibility S/I/R: R
  antibiotic susceptibility value: 128
  susceptibility category (S/I/R): R
  susceptibility test value (number given before S/I/R): 128
Host strain YMC16/03/R4461
  antibiotic susceptibility S/I/R: R
  antibiotic susceptibility value: 128
  susceptibility category (S/I/R): R
  susceptibility test value (number given before S/I/R): 128
Host strain YMC16/05/R2210
  antibiotic susceptibility S/I/R: R
  antibiotic susceptibility value: 128
  susceptibility category (S/I/R): R
  susceptibility test value (number given before S/I/R): 128
Host strain YMC16/07/R2512
  antibiotic susceptibility S/I/R: R
  antibiotic susceptibility value: 128
  susceptibility category (S/I/R): R
  susceptibility test value (number given before S/I/R): 128
Host strain YMC16/09/R2471
  antibiotic susceptibility S/I/R: R
  antibiotic susceptibility value: 128
  susceptibility category (S/I/R): R
  susceptibility test value (number given before S/I/R): 128
Host strain YMC16/10/R2537
  antibiotic susceptibility S/I/R: R
  antibiotic susceptibility value: 128
  susceptibility category (S/I/R): R
  susceptibility test value (number given before S/I/R): 128
Host strain YMC16/12/B11422
  antibiotic susceptibility S/I/R: R
  antibiotic susceptibility value: 128
  susceptibility category (S/I/R): R
  susceptibility test value (number given before S/I/R): 128
Host strain YMC16/12/B11449
  antibiotic susceptibility S/I/R: R
  antibiotic susceptibility value: 128
  susceptibility category (S/I/R): R
  susceptibility test value (number given before S/I/R): 128
Host strain YMC16/12/B13325
  antibiotic susceptibility S/I/R: R
  antibiotic susceptibility value: 128
  susceptibility category (S/I/R): R
  susceptibility test value (number given before S/I/R): 128
Host strain YMC16/12/P503
  antibiotic susceptibility S/I/R: R
  antibiotic susceptibility value: 128
  susceptibility category (S/I/R): R
  susceptibility test value (number given before S/I/R): 128
Host strain YMC16/12/R4637
  antibiotic susceptibility S/I/R: R
  antibiotic susceptibility value: 128
  susceptibility category (S/I/R): R
  susceptibility test value (number given before S/I/R): 128
Host strain YMC17/01/B8053
  antibiotic susceptibility S/I/R: R
  antibiotic susceptibility value: 128
  susceptibility category (S/I/R): R
  susceptibility test value (number given before S/I/R): 128
Host strain YMC17/01/B10087
  antibiotic susceptibility S/I/R: R
  antibiotic susceptibility value: 128
  susceptibility category (S/I/R): R
  susceptibility test value (number given before S/I/R): 128
Host strain YMC17/01/B12075
  antibiotic susceptibility S/I/R: R
  antibiotic susceptibility value: 128
  susceptibility category (S/I/R): R
  susceptibility test value (number given before S/I/R): 128
Host strain YMC17/01/B13454
  antibiotic susceptibility S/I/R: R
  antibiotic susceptibility value: 128
  susceptibility category (S/I/R): R
  susceptibility test value (number given before S/I/R): 128
Host strain YMC17/01/P518
  antibiotic susceptibility S/I/R: R
  antibiotic susceptibility value: 128
  susceptibility category (S/I/R): R
  susceptibility test value (number given before S/I/R): 128
Host strain YMC17/01/R2812
  antibiotic susceptibility S/I/R: R
  antibiotic susceptibility value: 128
  susceptibility category (S/I/R): R
  susceptibility test value (number given before S/I/R): 128
Host strain YMC17/02/B14
  antibiotic susceptibility S/I/R: R
  antibiotic susceptibility value: 128
  susceptibility category (S/I/R): R
  susceptibility test value (number given before S/I/R): 128
